In patent US9670214B2, “Small molecule myristate inhibitors of Bcr-abl and methods of use” (DANA-FARBER CANCER INSTITUTE, INC., priority 2007, dated 2017):

Legend:
[1] = biological target: Bcr-abl (Ba/F3.p210 cells) (Homo sapiens, UniProt P00519); experiment: Proliferation assay (MTT), wild type Bcr-abl expressing Ba/F3 cells; assay type: cell-based, murine; conditions: 48 h, drug concentrations 0.005-10 μM
From the text: (§1) Wild type Bcr-abl expressing 32D (32D.p210) and Ba/F3 (Ba/F3.p210) cells, and mutant Bcr-abl expressing cell lines Ba/F3.p210^G250E, Ba/F3.p210^E255V, Ba/F3.p210^T315I, Ba/F3.p210^F317L and Ba/F3.p210^M351T, as well as Ba/F3 cells transformed with Flt-3-ITD kinase. Additional assays included Ba/F3 cells expressing the fusion protein kinases TEL-PDGFRβ, TEL-JAK1, NPM-ALK, TEL-cKit, Tel-Bmx, Tel-FGR3, Tel-Lck and Ba/F3.TPR-met cells. All the above cell lines were maintained in RPMI-1640 medium with L-Glutamine, 10% FBS and 1 mg/ml geneticin (Gibco).
(§2) Cells (0.3-0.6×10^6/ml) were plated in duplicate or triplicate in 96-well plates containing increasing drug concentrations (0.005-10 μM). After incubation at 37° C. in 5% CO2 for 48 h, the effect of the compounds on cell viability was determined by MTT (Promega) colorimetric dye reduction method. Inhibition of cell proliferation was calculated as a percentage of growth of DMSO treated cells, and IC50 values were determined with Microsoft Excel XLfit3.

[2] = biological target: Bcr-abl T315I (Ba/F3.p210^T315I cells) (Homo sapiens, UniProt P00519, T315I, cells depend on it); experiment: Proliferation assay (MTT), T315I mutant Bcr-abl expressing Ba/F3 cells; assay type: cell-based, murine; conditions: 48 h, drug concentrations 0.005-10 μM
From the text: as §1, §2

[3] = system: Ba/F3 cells (IL-3 dependent murine pro-B cell line); experiment: Proliferation assay (MTT), parental Ba/F3 cells; assay type: cell-based; conditions: Mus musculus, 48 h, drug concentrations 0.005-10 μM, read-out: BaF3
Description: Interleukin-3 (IL-3) dependent murine pro-B cell line, Ba/F3, and murine myeloid precursor cell line, 32D, were maintained in RPMI-1640 medium supplemented with L-Glutamine, 10% FBS and 10 U/ml recombinant murine IL-3 (Roche). Mo7e human megakarioblastic cell line was grown in RPMI-1640 medium supplemented with L-Glutamine, 20% FBS and 5 ng/ml recombinant human granulocyte macrophage cell stimulating factor (GM-CSF) (R&D Systems) or 200 ng/ml stem cell factor (SCF) (Biosource).
as §2

Row | SMILES | IC50 [1] [µM] | IC50 [2] [µM] | IC50 [3] [µM]
1 | O=C(c1ccoc1)N1CCN(C(=O)c2ccc3c(Nc4ccc(OC(F)(F)F)cc4)ncnc3c2)CC1 | 2.04 | 3.9 | > 10
2 | CCNC(=O)CCn1ccc2c(Nc3ccc(OC(F)(F)F)cc3)ncnc21 | 2.42 | 9.29 | > 10
3 | O=C(Nc1cccc(C(F)(F)F)c1)c1ccc2c(Nc3ccc(OC(F)(F)F)cc3)ncnc2c1 | 1.28 | 1.56 | 4.5
4 | Cn1c(C(=O)N2CCC(C(N)=O)CC2)cc2c(Nc3ccc(OC(F)(F)F)cc3)ncnc21 | 0.82 | > 10 | > 10
5 | CCN(CC)C(=O)c1ccc2c(Nc3ccc(OC(F)(F)F)cc3)ncnc2c1 | 0.742 | 3.17 | > 10
6 | Cn1c(C(=O)N2CCCC(C(N)=O)C2)cc2c(Nc3ccc(OC(F)(F)F)cc3)ncnc21 (centres unmarked) | 1.98 | > 10 | > 10
7 | O=C(c1ccc2c(Nc3ccc(OC(F)(F)F)cc3)ncnc2c1)N1CCC(O)C1 (centres unmarked) | 1.17 | > 10 | > 10
8 | O=C(NCCO)c1ccc2c(Nc3ccc(OC(F)(F)F)cc3)ncnc2c1 | 2.15 | > 10 | > 10
9 | NC(=O)C1CCCN(C(=O)c2ccc3c(Nc4ccc(OC(F)(F)F)cc4)ncnc3c2)C1 (centres unmarked) | 3.09 | > 10 | > 10
10 | CCOC(=O)c1cc2c(Nc3ccc(OC(F)(F)F)cc3)ncnc2n1C | 1.5 | > 10 | > 10
11 | Cn1ncc2c(Nc3ccc(OC(F)(F)F)cc3)ncnc21 | > 10 |  | > 10
12 | CCOC(=O)C1CCCN(C(=O)c2ccc3c(Nc4ccc(OC(F)(F)F)cc4)ncnc3c2)C1 (centres unmarked) | 5.55 | > 10 | 8.84
13 | CN(CCO)C(=O)c1ccc2c(Nc3ccc(OC(F)(F)F)cc3)ncnc2c1 | 2.66 | > 10 | > 10
14 | O=C(c1ccc2c(Nc3ccc(OC(F)(F)F)cc3)ncnc2c1)N1CCC2(CC1)C(=O)NCN2c1ccccc1 | 1.48 | 8.32 | 6.89
15 | FC(F)(F)Oc1ccc(Nc2ncnc3c2ccn3CCN2CCOCC2)cc1 | 0.38 | 4.27 | > 10
16 | O=C(CCn1ccc2c(Nc3ccc(OC(F)(F)F)cc3)ncnc21)NCCN1CCOCC1 | 1.06 | 3.14 | > 10
17 | CC(C)C(CCO)NC(=O)CCn1ccc2c(Nc3ccc(OC(F)(F)F)cc3)ncnc21 (centres unmarked) | 0.86 | 2.07 | > 10
18 | COC1CCN(C(=O)c2ccc3c(Nc4ccc(OC(F)(F)F)cc4)ncnc3c2)CC1 | 0.639 | 0.895 | > 10
19 | CC1CN(C(=O)c2ccc3c(Nc4ccc(OC(F)(F)F)cc4)ncnc3c2)CC(C)N1 (centres unmarked) | 2.14 | > 10 | 7.62

Row | SMILES | IC50 [1] [µM] | IC50 [2] [µM] | IC50 [3] [µM]
20 | NC(=O)CCn1ccc2c(Nc3ccc(OC(F)(F)F)cc3)ncnc21 | 0.49 | 6.42 | > 10
21 | OCc1ccc2c(Nc3ccc(OC(F)(F)F)cc3)ncnc2c1 | 0.508 | > 10 | > 10
22 | CN1CCC(N(C)C(=O)c2ccc3c(Nc4ccc(OC(F)(F)F)cc4)ncnc3c2)CC1 | 0.689 | 5 | 5.99
23 | CCN1CCCC1NC(=O)c1cc2c(Nc3ccc(OC(F)(F)F)cc3)ncnc2n1C (centres unmarked) | 2.95 | 8.47 | 5.12
24 | CCN(CC)CCCC(C)NC(=O)c1cc2c(Nc3ccc(OC(F)(F)F)cc3)ncnc2n1C (centres unmarked) | 1.18 | 4 | 4.12
25 | CCN(CC)Cc1ccc2c(Nc3ccc(OC(F)(F)F)cc3)ncnc2c1 | 2.04 | > 10 | > 10
26 | Cn1c(C(=O)NC(=N)N)cc2c(Nc3ccc(OC(F)(F)F)cc3)ncnc21 | > 10 | > 10 | > 10
27 | Cn1ccc2c(Nc3ccc(OC(F)(F)F)cc3)ncnc21 | 6.89 | > 10 | > 10
28 | CNCCN(C)C(=O)c1ccc2c(Nc3ccc(OC(F)(F)F)cc3)ncnc2c1 | 5.98 | > 10 | > 10
29 | Cn1c(C(N)=O)cc2c(Nc3ccc(OC(F)(F)F)cc3)ncnc21 | 0.62 | > 10 | > 10
30 | FC(F)(F)Oc1ccc(Nc2ncnc3[nH]ccc23)cc1 | > 10 | > 10 | > 10
31 | COC(=O)c1ccc2c(Nc3ccc(OC(F)(F)F)cc3)ncnc2c1 | 0.214 | 1.91 | 6.62
32 | Cc1ccc(S(=O)(=O)NC(=O)c2ccc3c(Nc4ccc(OC(F)(F)F)cc4)ncnc3c2)cc1 | > 10 | > 10 | > 10
33 | CCNNC(=O)c1ccc2c(Nc3ccc(OC(F)(F)F)cc3)ncnc2c1 | 1.88 | 6.3 | 6.51
34 | O=C(c1ccc2c(Nc3ccc(OC(F)(F)F)cc3)ncnc2c1)N1CCCC1CO (centres unmarked) | 1.65 | > 10 | > 10
35 | COCCCNC(=O)c1ccc2c(Nc3ccc(OC(F)(F)F)cc3)ncnc2c1 | 4.09 | > 10 | > 10
36 | Cn1c(CO)cc2c(Nc3ccc(OC(F)(F)F)cc3)ncnc21 | 0.245 | > 10 | > 10
37 | CC(C)(C)S(=O)(=O)NC(=O)c1ccc2c(Nc3ccc(OC(F)(F)F)cc3)ncnc2c1 | > 10 | > 10 | > 10
